Measurements: patent publication US20240277682A1, “PHARMACEUTICAL HYDRONIDONE FORMULATIONS FOR DISEASES” (Gyre Therapeutics, Inc., priority 2021, published 2024)

Assay: In vitro drug-drug interaction with Entecavir and Lamivudine in human liver microsomes
Conditions: each 1.5 mM, P>0.05
Protocol: Entecavir and Lamivudine, were used concomitantly with Hydronidone, or individually, in the in vitro drug interaction experiments, in respective concentrations of each of 1.5 mM.

Nc1ccn([C@@H]2CS[C@H](CO)O2)c(=O)n1 [lamivudine, reference compound]
drug interactions with Hydronidone (residual drug concentrations, individual vs combined medication groups): do not exhibit drug interactions with Hydronidone
